Measurements reported in paper PMC10779255, “Novel Hydroxamic Acids Containing Aryl-Substituted 1,2,4- or 1,3,4-Oxadiazole Backbones and an Investigation of Their Antibiotic Potentiation Activity” (International Journal of Molecular Sciences, 2023).
“Also recorded” adds a separate entry of the source.

Key:
[1] = Cytotoxicity assay (Alamar Blue); format: cell-based; conditions: human, HEK293 cells, 72 h exposure, mean ± SD, at least 3 independent experiments
Description: (§1) The HEK293 cell line was obtained from the ECACC (European Collection of Authenticated Cell Cultures, cat. 85120602, Salisbury, UK). The cells were grown in monolayer culture in Dulbecco’s Modified Eagle Medium (DMEM) (PanEco, Moscow, Russia) supplemented with 2 mM of L-glutamine, 1% penicillin/streptomycin (Capricorn Scientific, Ebsdorfergrund, Germany), and 10% heat-inactivated fetal bovine serum (HyClone, Cytiva, Pasching, Austria) in a humidified atmosphere of 5% CO2 and at 37 °C (Binder, Tuttlingen, Germany). For analysis, the HEK293 cells were seeded into a 96-well plate (Corning Incorporated, Corning, NY, USA) in 100 μL of complete culture medium at a final concentration of 1 × 10^4 cells/well and cultured for 24 h for proper attachment. Subsequently, the medium was removed, and cells were exposed to the test inhibitor with different concentrations for 72 h in 100 μL of fresh complete culture medium. The sensitivity of the cells to test inhibitor molecules was detected using the vital dye Alamar Blue (Invitrogen, Carlsbad, CA, USA). The Alamar Blue assay was performed according to the procedure described by O’Brien et al.. After incubation with test inhibitor molecules, 10 μL of Alamar Blue reagent was added to each well, cell culture plates were returned to a humidified incubator, and the fluorescence was read after 3 h. The plates were exposed to an excitation wavelength of 545 nm, and the emission at 600 nm was measured with the CLARIOstar Plus (BMG Labtech, Ortenberg, Germany, Software Version 5.70 R2). To determine corresponding 50% cellular cytotoxicity (CC50) values, a four-parameter sigmoidal fit curve model (GraphPad Prism 8 software) was used to measure the data.

[2] = system: E. coli MG1655; assay: Growth curves of E. coli MG1655 with antibiotics, with or without LpxC inhibitors (antibiotic potentiation); format: cell-based, Escherichia coli; conditions: for Activity: combined action together with the antibiotic, marking used for QSAR; for potentiation of kanamycin (sensitivity of cells): kanamycin 0.62 μM; for potentiation of kanamycin (sensitivity of cells) / potentiation of rifampicin (sensitivity of cells): inhibitor 50 or 100 µM; for potentiation of kanamycin (sensitivity of cells) / potentiating activity with nalidixic acid (growth inhibition) / potentiation of rifampicin (sensitivity of cells): OD600 growth curves; for potentiating activity with nalidixic acid (growth inhibition): nalidixic acid 17.22 μM, inhibitor 50–100 µM; for potentiation of rifampicin (sensitivity of cells): rifampicin 6.08 μM; for bacteriostatic effect in the first 10 h of incubation: with antibiotic, resumption of culture growth observed subsequently; for Activity: key: active (1); inactive (0)
Description: (§2) Escherichia coli strain MG1655 and Pseudomonas aeruginosa strain ATCC 27853 were obtained from the American Type Culture Collection (ATCC; Rockville, MD, USA). Subculturing and inoculum preparation were prepared according to the Clinical and Laboratory Standards Institute (CLSI) recommended method, M7-A9 [42], using MHA and MHB.
Growth curves were obtained with a Bioscreen C automated growth analysis system. Cultures of E. coli MG1655 were grown overnight at 37 °C, diluted 1:100 in fresh medium, inoculated into honeycomb wells in triplicate, and grown at 37 °C with maximum shaking using the platform of the Bioscreen C instrument. […] OD600 values were recorded automatically at specified times, and the means of the triplicate cultures were plotted.

[3] = system: P. aeruginosa ATCC 27853; assay: MIC (broth microdilution) and growth curves of antibiotics in combination with 9c or 9d; format: cell-based, Pseudomonas aeruginosa; conditions: for time of growth inhibition in combination with nalidixic acid: 50 μM of compound + 2.15 μM nalidixic acid, growth curves; for MIC: Pseudomonas aeruginosa, ATCC27853, read-out: MIC of nalidixic acid in the presence of compound; for P. aeruginosa ATCC 27853 growth in combination with antibiotics: with nalidixic acid or rifampicin
Description: as §2
Minimum inhibitory concentrations (MICs) for rifampicin and nalidixic acid were determined via the modified broth microdilution method in triplicate according to CLSI guidelines M7-A9 and M100-A30 [43]. The antibiotics were serially diluted twofold in 100 μL of MHB. The bacteria inoculum was 100 μL of a 1.0 × 10^6 CFU/mL dilution in MHB. MICs for antibiotics in the presence of 9c or 9d were determined with the same method.
MIC endpoints were read after 24 h of incubation with an iMark microplate absorbance reader (Bio-Rad, Hercules, CA, USA). Growth curves of P. aeruginosa ATCC 27853 in the presence of rifampicin/nalidixic acid and 9c/9d were obtained using a multifunction microplate reader, SuperMax 3100 (ShanghaiFlash, Shanghai, China). Cells were grown in triplicate at 37 °C with aeration.

[4] = system: HEK293 cell line; assay: Cytotoxicity assay (Alamar Blue); format: cell-based; conditions: HEK293 cells, 72 h exposure, mean ± SD, at least 3 independent experiments
Description: as §1

[5] = system: E. coli LpxC; conditions: cited from earlier work

SMILES	CC50 at 72 h [1] [µM]	Activity [2]	potentiation of kanamycin (sensitivity of cells) [2]	potentiating activity with nalidixic acid (growth inhibition) [2]	potentiation of rifampicin (sensitivity of cells) [2]	bacteriostatic effect in the first 10 h of incubation [2]	decrease of MIC of rifampicin ([3]; 25 μM of compound)	reduction of MIC of nalidixic acid ([3]; 25 μM of compound)	MIC of rifampicin in the presence of compound ([3]; 50 μM of compound) [µM]	reduction of MIC of nalidixic acid ([3]; 50 μM of compound)	reduction of MIC of rifampicin ([3]; 50 μM of compound) [times]	time of growth inhibition in combination with nalidixic acid [3] [h]	MIC of rifampicin in the presence of compound ([3]; 100 μM of compound) [µM]	decrease of MIC of nalidixic acid ([3]; 100 μM of compound)	reduction of MIC of rifampicin ([3]; 100 μM of compound) [times]	MIC ([3]; 100 μM of compound) [µM]	P. aeruginosa ATCC 27853 growth in combination with antibiotics [3]	melting point	CC50 (HEK293) [4]	inhibition of E. coli LpxC [5]
O=C(Cc1nc(-c2cc(F)c(F)c(F)c2)no1)NO [Compound 9c]	189 ± 29.5	1	greatest effectiveness; also recorded: greatest potentiating activity	greatest potentiating activity	greatest effectiveness; also recorded: greatest potentiating activity	powerful bacteriostatic effect	twofold	two times	0.08	four times	64	≤ 14	0.08	approximately eight-fold	64	2.15	significantly reduced; also recorded: best results	159.2 °C (dec.)		
Cc1cccc(-c2noc(CC(=O)NO)n2)c1 [Compound 9d]	176 ± 17.8	1	greatest potentiating activity	greatest potentiating activity	greatest potentiating activity	powerful bacteriostatic effect	inactive	ineffective	0.08	four times	64	≤ 8	0.08	approximately eight-fold	64	2.15	significantly reduced; also recorded: best results	165.4 °C (dec.)		
Cn1c(-c2nnc(C(=O)NO)o2)cc2ccccc21 [Compound 36]	132 ± 23.7	1	completely ineffective	inhibited bacterial growth less effectively; also recorded: weak potentiating activity	completely ineffective													198 °C (dec.)	increased toxicity	
CCCc1cc(C2=N[C@@H](C(=O)NO)CO2)cc(OC)c1OC [L-161,240]																				potent inhibitors
